# Experimental data taken from patent US12559769B2, “Methods and compositions for the activation of tumor cytotoxicity via human gamma-delta t-cells” (priority 2017, dated 2026).
# System: Vγ9Vδ2 T cells
# Test: Activation of Vγ9Vδ2 T cells (TNF-α, flow cytometry) by HepG2 liver carcinoma cells co-cultured with expanded PBMC
# Format: cell-based, human
# Description: HepG2 cells were transduced with LV-vector, LV-BTN3A3 (R381H), or LV-shFDPS-BTN3A3 (R381H). Three days after transduction, cells were treated with or without 1 μM zoledronic acid. After 24 hours, the transduced HepG2 cells were co-cultured with 5×10^5 PBMC cells and IL-2 in a round bottom 96 well plate for 4 hours. The PBMC cells were pre-stimulated with zoledronic acid and IL-2 for 11 days to expand Vγ9Vδ2 T cells. After staining for Vγ9Vδ2 and TNF-α using fluorophore-conjugated anti TCR-Vδ2 and anti-TNF-α antibody, cells were analyzed via flow cytometry. Live cells were gated, and Vδ2+ and TNF-α+cells were selected on a dot blot. The activated cytotoxic Vγ9Vδ2 T cells appeared in the upper right quadrant of flow cytograms. Without zoledronic acid, the percent of TNF-α expressing Vγ9Vδ2 T cells was 0.6% with LV-vector, 9.5% with BTN3A3 (R381H), and 13.2% with the combination of LV-shFDPS-BTN3A3 (R381H). With zoledronic acid, the percent of TNF-α expressing Vγ9Vδ2 T cells was 7.2% with LV-vector, 17.8% with BTN3A3 (R381H), and 30.1% with the combination of LV-shFDPS-BTN3A3 (R381H).
# HepG2 cells were transduced with LV-shFDPS or LV-shFDPS-IL-2. Three days after transduction, cells were treated with or without 1 μM zoledronic acid. After 24 hours, the transduced HepG2 cells were co-cultured with 5×10^5 PBMC cells and with or without IL-2 in a round bottom 96 well plate for 4 hours. The PBMC cells were pre-stimulated with zoledronic acid and IL-2 for 11 days to expand Vγ9Vδ2 T cells. After staining for Vγ9Vδ2 and TNF-α using fluorophore-conjugated anti TCR-Vδ2 and anti-TNF-α antibody, cells were analyzed via flow cytometry. Live cells were gated, and Vδ2+ and TNF-α+ cells were selected on a dot blot. The activated cytotoxic Vγ9Vδ2 T cells appeared in the upper right quadrant of flow cytograms. With only zoledronic acid, the percent of TNF-α expressing Vγ9Vδ2 T cells was 7.5% with LV-shFDPS and 20.1% with LV-shFDPS-IL-2. With zoledronic acid and IL-2, the percent of TNF-α expressing Vγ9Vδ2 T cells was 27.8% with LV-shFDPS and 24.7% with LV-shFDPS-IL-2.
# HepG2 liver carcinoma cells were transduced with Lv-shFDPS, Lv-FDPS-IL-15 (expressing both shRNAFDPS and the human cytokine interleukin 15) or Lv-control and cultured for 72 hours. Zoledronic acid (1 μM) was added to (1) cells transduced with Lv-shFDPS, (2) cells transduced with Lv-FDPS-IL-15, and (3) HepG2 cells transduced with Lv-control. Treated cells were cultured for 24 hours. Lv-shFDPS transduced cells, Lv-FDPS-IL-15 transduced cells, and Lv-control transduced cells were co-cultured with PBMC enriched for Vγ9Vδ2 cells plus a protein transport inhibitor (BD GolgiStop) for 4 hours. After 4 hours of stimulation, cells were collected and labeled with Vδ2 phycoerythrin (PE) and TNFαallophycocyanin (APC), and the labeled cells were analyzed by flow cytometry.
# HepG2 cells were transduced with LV-control or LV-FDPS shRNA #4 (SEQ ID NO: 4) or LV-GGPS1 shRNA #1 (SEQ ID NO: 70) for 3 days. Two days after transduction, cells were treated with or without 1 μM zoledronic acid. After 24 hours, the transduced HepG2 cells were co-cultured for 4 hours with 5×10^5 PBMC cells in a round bottom 96 well plate. The PBMC cells had been pre-stimulated with zoledronic acid plus IL-2 for at least 11 days to expand Vγ9Vδ2 T cells. After staining for Vγ9Vδ2 and TNF-α using fluorophore-conjugated anti TCR-Vδ2 and anti-TNF-α antibody, cells were analyzed via flow cytometry. Live cells were gated; Vδ2+ and TNF-α+ cells were identified on a dot blot. The activated cytotoxic Vγ9Vδ2 T cells appeared in the upper right quadrant of the flow cytograms. Without zoledronic acid, LV-control stimulated 0.36% of TNF-α expressing Vγ9Vδ2 T cells whereas LV-FDPS shRNA #4 (SEQ ID NO: 4) stimulated 0.9% and LV-GGPS1 #1 (SEQ ID NO: 70) shRNA stimulated 0.58%. […]
# [1] = Example 26, FIG. 30, LV-FDPS shRNA #4 transduced HepG2 cells, drug 1 μM, 24 hours
# [2] = Example 26, FIG. 30, LV-control transduced HepG2 cells, 1 μM, 24 hours, untreated 1.82%
Compound,percent of TNF-α expressing Vγ9Vδ2 T cells [1] [%],percent of TNF-α expressing Vγ9Vδ2 T cells [2] [%],"percent of TNF-α expressing Vγ9Vδ2 T cells (Example 26, FIG. 30, LV-FDPS shRNA #4 transduced HepG2 cells, drug 5 μM, 24 hours) [%]","percent of TNF-α expressing Vγ9Vδ2 T cells (Example 26, FIG. 30, LV-control transduced HepG2 cells, 5 μM, 24 hours, untreated 1.82%) [%]","percent of TNF-α expressing Vγ9Vδ2 T cells (Example 4, LV-vector (control) transduced HepG2 cells, 1 μM zoledronic acid) [%]","percent of TNF-α expressing Vγ9Vδ2 T cells (Example 20, LV-control transduced HepG2 cells, 1 μM zoledronic acid) [%]"
COC(=O)[C@H](CCSC)NC(=O)c1ccc(NC[C@@H](N)CS)cc1-c1ccccc1 [FT1277],2.69,1.72,–,–,–,–
C=C(CC[C@]12O[C@H](C(=O)O)[C@@](O)(C(=O)O)[C@](C(=O)O)(O1)[C@H](OC(=O)/C=C/[C@@H](C)C[C@@H](C)CC)[C@H]2O)[C@@H](OC(C)=O)[C@H](C)Cc1ccccc1 [zaragozic acid],–,–,2.82,1.63,–,–
O=P(O)(O)C(O)(Cn1ccnc1)P(=O)(O)O [zoledronic acid],50.8,3.02,–,–,7.2,6.88
